From PMC10855164, “Ligand-Based Design of Selective Peptidomimetic uPA and TMPRSS2 Inhibitors with Arg Bioisosteres” (International Journal of Molecular Sciences, 2024)

How the values were obtained:
Type in all cases: biochemical
Details in all cases: from IC50 by Cheng-Prusoff; n.a. = not active, <80% inhibition at 20 µM
[1] = molecular target: T1, factor Xa (Homo sapiens, UniProt P00742); assay: colorimetric enzyme inhibition assay, factor Xa (Z-D-Arg-Gly-Arg-pNA)
T1 construct: purchased Bio-techne
Protocol: (§1) The inhibitory activity of the synthesized compounds towards the respective main- and off-target proteases was measured via fluorometric and colorimetric assays. Thus, fluorogenic AMC- or colorimetric pNA-based substrates with a peptide sequence suitable for the tested protease were utilized (see Supplementary Figure S2). At first, the compounds were screened against […] proteases (uPA, TMPRSS2, matriptase, tPA, thrombin, factor Xa) at 20 µM, and a cut-off value of 80% inhibition at this concentration was set, for the differentiation between nonactive (n.a.) and active inhibitors. Due to the reversible inhibition mechanism of the ketobenzothiazole derivates, the IC50 values were determined with Graphpad Prism 9, and afterwards converted to the corresponding Ki values for an adequate comparison between the inhibitory activities of the compounds toward all tested proteases. The Ki values were calculated using the Cheng–Prusoff equation [43].
(§2) Fluorometric inhibition assays
(§3) The inhibitory activities of the compounds against the proteases were determined by enzyme inhibition assays with fluorogenic or colorimetry-based substrates. The fluorescence, caused by cleaved AMC from the fluorogenic substrates (uPA, matriptase, TMPRSS2, thrombin), was measured in white flat-bottom 96-well plates from Greiner Bio-One using a Tecan Infinite F200 Pro plate reader. The absorption, caused by cleaved pNA from colorimetric substrates (factor Xa and tPA), was measured in transparent flat-bottom 96-well plates from Greiner Bio-One using a Tecan Spark 10M plate reader. All measurements with the main-target proteases (uPA and TMRPSS2) were performed as triplicates and with the off-target proteases (matriptase, factor Xa, tPA, thrombin) as duplicates. The substrates and the compounds were prepared as stock solutions in DMSO. Each well contained a total volume of 200 µL, consisting of 185 µL buffer, 5 µL inhibitor in DMSO or pure DMSO as negative control, 5 µL substrate in DMSO and 5 µL enzyme solution in buffer. Dilution series were prepared for the determination of the inhibition constants. The fluorescence signal and absorbance were measured every 30 s for 10 min at 25 or 37 °C with the corresponding excitation/emission (λex = 380 nm / λem = 460 nm) and absorbance (λabs = 405 nm) wavelengths, depending on the targeted protease. IC50 values for the reversible inhibitors were calculated with Graphpad Prism 9 by fitting the remaining enzymatic activity to the four parameter IC50 equation with Y [%] as the residual enzyme activity , Ymax as the maximum value of the dose response curve at inhibitor concentrations [I] = 0 µM, Ymin as the minimum value at high inhibitor concentrations and s as the hill coefficient.[1] The fluorescence progress curves and sigmoidal dose-response curve for inhibition of uPa by compound 38 is shown exemplary in Figure S2. […]
(§4) Due to the dependence of the IC50 value on the substrate affinity and concentration, the Ki values were calculated with the Cheng-Prusoff equation, using the final substrate concentration [S] and the Michaelis-Menten constant KM, (2) for appropriate comparison of the inhibitory activities to the other enzymes and inhibitors.[1]
(§5) KM values were determined by fitting to the Michaelis-Menten equation using Graphpad Prism 9 with v [ΔF/min] as the substrate hydrolysis rate, vmax as the maximum slope of the dose-response curve, and the substrate [S] concentration.[1] The different substrates were serially diluted in DMSO. The measurement was done in analogy to the determination of the inhibitory activity, but with 5 µL pure DMSO instead of inhibitor solution. […]
(§6) The following buffers and substrates were used for the respective assays: uPA (50 mM Tris HCl pH = 7.9, 150 mM […]
(§7) TMPRSS2 (25 mM Tris HCl pH = 8.0, 150 mM NaCl, 5 mM CaCl2, 0.001% TX-100, 100 µM Boc-Gln-Ala-Arg-AMC (KM: 68.63 ± 6.64 µM), 25 °C, 3 nM TMPRSS2)[3]; matriptase (50 mM Tris HCl pH = 8.0, 150 mM NaCl, 5 mM CaCl2, […]

[2] = molecular target: T2, tPA (Homo sapiens, UniProt P00750); assay: colorimetric enzyme inhibition assay, tPA (N-methylsulfonyl-D-Phe-Gly-Arg-pNA)
T2 construct: purchased Sigma Aldrich
Protocol: as §1, §2, §3, §4
KM values were determined by fitting to the Michaelis-Menten equation using Graphpad Prism 9 with v [ΔF/min] as the substrate hydrolysis rate, vmax as the maximum slope of the dose-response curve, and the substrate [S] concentration.[1] The different substrates were serially diluted in DMSO. […]

[3] = molecular target: T3, thrombin (Homo sapiens, UniProt P00734); assay: fluorometric enzyme inhibition assay, thrombin (Z-Gly-Gly-Arg-AMC)
T3 construct: purchased Bio-techne
Protocol: as §1, §2, §3, §4, §5, §6, §7

T2 sequence (P00750 36-562): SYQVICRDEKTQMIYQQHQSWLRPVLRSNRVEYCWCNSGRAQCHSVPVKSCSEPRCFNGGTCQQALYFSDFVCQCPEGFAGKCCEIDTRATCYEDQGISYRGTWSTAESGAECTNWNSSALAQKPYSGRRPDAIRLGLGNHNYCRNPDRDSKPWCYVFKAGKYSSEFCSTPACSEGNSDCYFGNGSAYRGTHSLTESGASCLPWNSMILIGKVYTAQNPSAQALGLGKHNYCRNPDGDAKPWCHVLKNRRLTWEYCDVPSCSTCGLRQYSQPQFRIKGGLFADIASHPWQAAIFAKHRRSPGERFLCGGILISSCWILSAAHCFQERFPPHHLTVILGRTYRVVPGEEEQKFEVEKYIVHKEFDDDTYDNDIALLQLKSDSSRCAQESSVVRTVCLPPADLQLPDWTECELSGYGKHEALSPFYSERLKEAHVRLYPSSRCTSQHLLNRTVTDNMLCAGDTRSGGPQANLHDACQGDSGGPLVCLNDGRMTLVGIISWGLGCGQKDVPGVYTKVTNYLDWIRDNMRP
T1 sequence (P00742 235-488 limits assumed): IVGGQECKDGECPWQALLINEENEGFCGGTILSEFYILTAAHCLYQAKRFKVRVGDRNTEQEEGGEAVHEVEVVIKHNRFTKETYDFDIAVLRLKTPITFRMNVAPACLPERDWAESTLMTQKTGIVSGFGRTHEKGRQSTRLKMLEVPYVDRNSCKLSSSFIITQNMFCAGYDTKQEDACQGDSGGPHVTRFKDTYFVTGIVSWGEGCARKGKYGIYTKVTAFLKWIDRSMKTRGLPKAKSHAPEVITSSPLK
T1 sequence (P00742 41-179 partner limits assumed): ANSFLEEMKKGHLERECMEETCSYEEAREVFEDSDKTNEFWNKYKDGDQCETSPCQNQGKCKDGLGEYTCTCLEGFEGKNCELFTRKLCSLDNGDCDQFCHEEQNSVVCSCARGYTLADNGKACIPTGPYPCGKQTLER

CC(=O)NCC(=O)NC(C(=O)NC(C)C(=O)NC(CC1CCC(NC(=N)N)CC1)C(=O)c1nc2ccccc2s1)C(C)O (stereo not drawn) [Compound 38]
did not inhibit: Ki Factor Xa [1] | Ki tPA [2] | Ki Thrombin [3]
